Measurements published in patent US4966891A, “Fluorocytidine derivatives” (priority 1987, dated 1990).

Key:
[1] = tested on: Sarcoma 180; assay: Antitumor testing against Sarcoma 180 (oral, s.c. implanted); format: in vivo, mice; details: Mus musculus, 336 h, day 14, read-out: Inhibition of tumor growth; for inhibition in vivo at 1400 µmol/kg: 1.4 mmole/kg/day × 7, p.o.; for inhibition in vivo at 2700 µmol/kg: 2.7 mmole/kg/day × 7, p.o.; for inhibition in vivo at 800 µmol/kg: 0.8 mmole/kg/day × 7, p.o.; for inhibition in vivo at 1500 µmol/kg: 1.5 mmole/kg/day × 7, p.o.; for inhibition in vivo at 500 µmol/kg: 0.5 mmole/kg/day × 7, p.o.; for inhibition in vivo at 3000 µmol/kg: 3.0 mmole/kg/day × 7, p.o.
Description: (§1) Sarcoma 180 cells (2×10^6 cells) were implanted subcutaneously into mice (20-22 g) on day 0. The compounds of the present invention were administered daily from day 1 through 7 orally. The animals were sacrificed on day 14 and tumors were excised and weighed. The percent inhibition of tumor growth given in Table 1 below was calculated from the formula:
(§2) T=weight of the tumors from the treated group, C=weight of the tumors from the control group.

[2] = tested on: Meth A fibrosarcoma; assay: Antitumor testing against Meth A fibrosarcoma (oral, s.c. implanted); format: in vivo, mice; details: Mus musculus, read-out: Inhibition of tumor growth; for inhibition in vivo at 1500 µmol/kg: 1.5 mmole/kg/day × 7, p.o.; for inhibition in vivo at 3000 µmol/kg: 3.0 mmole/kg/day × 7, p.o.; for inhibition in vivo at 800 µmol/kg: 0.8 mmole/kg/day × 7, p.o.
Description: as §1, §2
Meth A fibrosarcoma cells (2×10^5 cells) were implanted subcutaneously into mice (21-22 g). The testing against Meth A fibrosarcoma and the calculation of the percent inhibition of tumor growth were effected according to a manner analogous to that of the testing against Sarcoma 180.

In the case of CCCCCCCCCCCCCCCC(=O)Nc1nc(=O)n([C@@H]2O[C@H](C)[C@@H](O)[C@H]2O)cc1F [Example 7, 5'-deoxy-5-fluoro-N^4-hexadecanoylcytidine], the inhibition in vivo at 1400 µmol/kg [1] is reported as 57% and the inhibition in vivo at 2700 µmol/kg [1] is reported as 84%.

With C[C@H]1O[C@@H](n2cc(F)c(N)nc2=O)[C@H](OC(=O)c2ccccc2)[C@@H]1OC(=O)c1ccccc1 [Example 57, 2',3'-di-O-benxoyl-5'-deoxy-5-fluorocytidine] the inhibition in vivo at 1500 µmol/kg [2] was 28% and the inhibition in vivo at 3000 µmol/kg [2] was 56%.

C[C@H]1O[C@@H](n2cc(F)c(NC(=O)c3ccc(F)cc3)nc2=O)[C@H](O)[C@@H]1O [Example 23, 5'-deoxy-5-fluoro-N^4-(4-fluorobenzoyl)cytidine] gave an inhibition in vivo at 800 µmol/kg [2] of 56% and an inhibition in vivo at 1500 µmol/kg [2] of 64%.

C[C@H]1O[C@@H](n2cc(F)c(NC(=O)C34CC5CC(CC(C5)C3)C4)nc2=O)[C@H](O)[C@@H]1O [Example 13, N^4-(1-adamantanecarbonyl)-5'-deoxy-5-fluorocytidine] was tested, and the inhibition in vivo at 800 µmol/kg [1] was 28% and the inhibition in vivo at 1500 µmol/kg [1] was 66%.

In the case of CCCCCCCCOC(=O)Nc1nc(=O)n([C@@H]2O[C@H](C)[C@@H](O)[C@H]2O)cc1F [Example 41, 5'-deoxy-5-fluoro-N^4-(octyloxycarbonyl)cytidine], the inhibition in vivo at 500 µmol/kg [1] is reported as -18% and the inhibition in vivo at 1500 µmol/kg [1] is reported as 36%.

COc1cc(OC)cc(C(=O)Nc2nc(=O)n([C@@H]3O[C@H](C)[C@@H](O)[C@H]3O)cc2F)c1 [Example 27] gave an inhibition in vivo at 1500 µmol/kg [2] of 58% and an inhibition in vivo at 3000 µmol/kg [2] of 91%.

Compound CCCCCCCCCCCCCCCCCC(=O)Nc1nc(=O)n([C@@H]2O[C@H](C)[C@@H](O)[C@H]2O)cc1F [Example 8, 5'-deoxy-5-fluoro-N^4-octadecanoylcytidine] has an inhibition in vivo at 1400 µmol/kg [1] of 20% and an inhibition in vivo at 2700 µmol/kg [1] of 77%.

CC(=O)Nc1nc(=O)n([C@@H]2O[C@H](C)[C@@H](O)[C@H]2O)cc1F [Example 2, N^4-acetyl-5'-deoxy-5-fluorocytidine] showed an inhibition in vivo at 1500 µmol/kg [1] of 84% and an inhibition in vivo at 3000 µmol/kg [1] of 91%.

Work on COC(=O)c1ccc(C(=O)Nc2nc(=O)n([C@@H]3O[C@H](C)[C@@H](O)[C@H]3O)cc2F)cc1 [Example 31, 5'-deoxy-5-fluoro-N^4-(4-methoxycarbonylbenzoyl)cytidine] yielded an inhibition in vivo at 1500 µmol/kg [2] of 55% and an inhibition in vivo at 3000 µmol/kg [2] of 84%.

C[C@H]1O[C@@H](n2cc(F)c(NC(=O)c3ccc4c(c3)OCO4)nc2=O)[C@H](O)[C@@H]1O [Example 48, 5'-deoxy-5-fluoro-N^4-piperonyloylcytidine] gave an inhibition in vivo at 800 µmol/kg [2] of 42% and an inhibition in vivo at 1500 µmol/kg [2] of 72%.

In the case of C[C@H]1O[C@@H](n2cc(F)c(N)nc2=O)[C@H](O)[C@@H]1OC(=O)c1ccccc1 [Example 59, 3'-O-benzoyl-5'-deoxy-5-fluorocytidine], the inhibition in vivo at 1500 µmol/kg [2] is reported as 23% and the inhibition in vivo at 3000 µmol/kg [2] is reported as 80%.

C[C@H]1O[C@@H](n2cc(F)c(NC(=O)c3cccs3)nc2=O)[C@H](O)[C@@H]1O [Example 37, 5'-deoxy-5-fluoro-N^4-(2-thenoyl)cytidine] gave an inhibition in vivo at 1500 µmol/kg [2] of 59% and an inhibition in vivo at 3000 µmol/kg [2] of 86%.

With CCCCCCCCC(=O)Nc1nc(=O)n([C@@H]2O[C@H](C)[C@@H](O)[C@H]2O)cc1F [Example 6, 5'-deoxy-5-fluoro-N^4-nonanoylcytidine] the inhibition in vivo at 500 µmol/kg [1] was 28% and the inhibition in vivo at 1500 µmol/kg [1] was 76%.

With C[C@H]1O[C@@H](n2cc(F)c(NC(=O)C3CC3)nc2=O)[C@H](O)[C@@H]1O [Example 11, N^4-cyclopropanecarbonyl-5'-deoxy-5-fluorocytidine] the inhibition in vivo at 800 µmol/kg [1] was 69% and the inhibition in vivo at 1500 µmol/kg [1] was 90%.

In the case of C[C@H]1O[C@@H](n2cc(F)c(NC(=O)c3ccc([N+](=O)[O-])cc3)nc2=O)[C@H](O)[C@@H]1O [Example 29], the inhibition in vivo at 1500 µmol/kg [2] is reported as 49% and the inhibition in vivo at 3000 µmol/kg [2] is reported as 92%.

In the case of COc1ccc(C(=O)Nc2nc(=O)n([C@@H]3O[C@H](C)[C@@H](O)[C@H]3O)cc2F)cc1OC [Example 26], the inhibition in vivo at 1500 µmol/kg [2] is reported as 37% and the inhibition in vivo at 3000 µmol/kg [2] is reported as 58%.

Compound Cc1cccc(C(=O)Nc2nc(=O)n([C@@H]3O[C@H](C)[C@@H](O)[C@H]3O)cc2F)c1 [Example 18] has an inhibition in vivo at 1500 µmol/kg [2] of 51% and an inhibition in vivo at 3000 µmol/kg [2] of 91%.

Compound C[C@H]1O[C@@H](n2cc(F)c(NC(=O)c3ccccc3)nc2=O)[C@H](O)[C@@H]1O [Example 16, N^4-benzoyl-5'-deoxy-5-fluorocytidine] has an inhibition in vivo at 800 µmol/kg [2] of 38% and an inhibition in vivo at 1500 µmol/kg [2] of 58%.

Work on Cc1ccc(C(=O)Nc2nc(=O)n([C@@H]3O[C@H](C)[C@@H](O)[C@H]3O)cc2F)cc1 [Example 17] yielded an inhibition in vivo at 1300 µmol/kg ([1]; 1.3 mmole/kg/day × 7, p.o.) of 75% and an inhibition in vivo at 2600 µmol/kg ([1]; 2.6 mmole/kg/day × 7, p.o.) of 92%.

In the case of C[C@H]1O[C@@H](n2cc(F)c(NC(=O)CCc3ccccc3)nc2=O)[C@H](O)[C@@H]1O [Example 52], the inhibition in vivo at 800 µmol/kg [2] is reported as 41% and the inhibition in vivo at 1500 µmol/kg [2] is reported as 51%.

Compound Cc1ccc(C(=O)Nc2nc(=O)n([C@@H]3O[C@H](C)[C@@H](O)[C@H]3O)cc2F)cc1C [Example 53] has an inhibition in vivo at 1500 µmol/kg [2] of 48% and an inhibition in vivo at 3000 µmol/kg [2] of 85%.

For C[C@H]1O[C@@H](n2cc(F)c(NC(=O)c3ccco3)nc2=O)[C@H](O)[C@@H]1O [Example 36, 5'-deoxy-5-fluoro-N^4-(2-furoyl)cytidine], the inhibition in vivo at 1500 µmol/kg [2] was 53% and the inhibition in vivo at 3000 µmol/kg [2] was 92%.

Compound CCC(=O)Nc1nc(=O)n([C@@H]2O[C@H](C)[C@@H](O)[C@H]2O)cc1F [Example 45, 5'-deoxy-5-fluoro-N^4-propionylcytidine] has an inhibition in vivo at 1500 µmol/kg [2] of 49% and an inhibition in vivo at 3000 µmol/kg [2] of 71%.

For C[C@H]1O[C@@H](n2cc(F)c(NC(=O)C(C)(C)C)nc2=O)[C@H](O)[C@@H]1O [Example 10, 5'-deoxy-5-fluoro-N^4-pivaloylcytidine], the inhibition in vivo at 1500 µmol/kg [1] was 74% and the inhibition in vivo at 3000 µmol/kg [1] was 97%.

With C[C@H]1O[C@@H](n2cc(F)c(NC(=O)c3ccc4ccccc4c3)nc2=O)[C@H](O)[C@@H]1O [Example 40, 5'-deoxy-5-fluoro-N^4-(2-naphthoyl)cytidine] the inhibition in vivo at 800 µmol/kg [2] was 41% and the inhibition in vivo at 1500 µmol/kg [2] was 57%.

Work on C=CCC(=O)Nc1nc(=O)n([C@@H]2O[C@H](C)[C@@H](O)[C@H]2O)cc1F [Example 49, N^4-(3-butenoyl)-5'-deoxy-5-fluorocytidine] yielded an inhibition in vivo at 1500 µmol/kg [2] of 58% and an inhibition in vivo at 3000 µmol/kg [2] of 76%.

C[C@H]1O[C@@H](n2cc(F)c(NC(=O)c3cccc(Cl)c3)nc2=O)[C@H](O)[C@@H]1O [Example 21] showed an inhibition in vivo at 800 µmol/kg [2] of 17% and an inhibition in vivo at 1500 µmol/kg [2] of 60%.

With C[C@H]1O[C@@H](n2cc(F)c(NC(=O)c3ccc(Cl)cc3)nc2=O)[C@H](O)[C@@H]1O [Example 20] the inhibition in vivo at 1500 µmol/kg [2] was 53% and the inhibition in vivo at 3000 µmol/kg [2] was 84%.

Work on COc1ccccc1C(=O)Nc1nc(=O)n([C@@H]2O[C@H](C)[C@@H](O)[C@H]2O)cc1F [Example 25] yielded an inhibition in vivo at 1500 µmol/kg [2] of -6% and an inhibition in vivo at 3000 µmol/kg [2] of 34%.

In the case of C[C@H]1O[C@@H](n2cc(F)c(NC(=O)Cc3ccccc3)nc2=O)[C@H](O)[C@@H]1O [Example 14], the inhibition in vivo at 1500 µmol/kg [2] is reported as 66% and the inhibition in vivo at 3000 µmol/kg [2] is reported as 94%.

C[C@H]1O[C@@H](n2cc(F)c(NC(=O)/C=C/c3ccccc3)nc2=O)[C@H](O)[C@@H]1O [Example 15, N^4-cinnamoyl-5'-deoxy-5-fluorocytidine] gave an inhibition in vivo at 800 µmol/kg [1] of 47% and an inhibition in vivo at 1500 µmol/kg [1] of 62%.

With C[C@H]1O[C@@H](n2cc(F)c(NC(=O)C3CCCCC3)nc2=O)[C@H](O)[C@@H]1O [Example 12, N^4-cyclohexanecarbonyl-5'-deoxy-5-fluorocytidine] the inhibition in vivo at 800 µmol/kg [1] was 40% and the inhibition in vivo at 1500 µmol/kg [1] was 73%.

With C[C@H]1O[C@@H](n2cc(F)c(NC(=O)c3ccccc3Cl)nc2=O)[C@H](O)[C@@H]1O [Example 22] the inhibition in vivo at 1500 µmol/kg [2] was 42% and the inhibition in vivo at 3000 µmol/kg [2] was 42%.

Cc1ccccc1C(=O)Nc1nc(=O)n([C@@H]2O[C@H](C)[C@@H](O)[C@H]2O)cc1F [Example 19] was tested, and the inhibition in vivo at 1500 µmol/kg [2] was 3% and the inhibition in vivo at 3000 µmol/kg [2] was 64%.

In the case of CCSC(=O)Nc1nc(=O)n([C@@H]2O[C@H](C)[C@@H](O)[C@H]2O)cc1F [Example 44, 5'-deoxy-N^4-(ethylthio)carbonyl-5-fluorocytidine], the inhibition in vivo at 1500 µmol/kg [2] is reported as 38% and the inhibition in vivo at 3000 µmol/kg [2] is reported as 66%.

With C[C@H]1O[C@@H](n2cc(F)c(NC(=O)Cc3c[nH]c4ccccc34)nc2=O)[C@H](O)[C@@H]1O [Example 54, 5'-deoxy-5-fluoro-N^4-(3-indolylacetyl)cytidine] the inhibition in vivo at 1500 µmol/kg [2] was 55% and the inhibition in vivo at 3000 µmol/kg [2] was 85%.

In the case of C[C@H]1O[C@@H](n2cc(F)c(NC(=O)c3cccc([N+](=O)[O-])c3)nc2=O)[C@H](O)[C@@H]1O [Example 30], the inhibition in vivo at 1500 µmol/kg [2] is reported as 55% and the inhibition in vivo at 3000 µmol/kg [2] is reported as 58%.

Compound COc1ccc(C(=O)Nc2nc(=O)n([C@@H]3O[C@H](C)[C@@H](O)[C@H]3O)cc2F)c(OC)c1 [Example 28] has an inhibition in vivo at 1500 µmol/kg [2] of -13% and an inhibition in vivo at 3000 µmol/kg [2] of -13%.
